“Also recorded” adds a separate entry of the source.
Experiments:
[1] = system: tau; test: Tau ELISA of whole brain lysates from rTG4510 mice (CL-287-2); assay type: in vivo, mouse (rTG4510, expressing human P301L Tau); settings: 5 mg/kg; 12 month old rTG4510 mice
Experimental: Tauopathy rTG4510 mice expressing human P301L Tau driven by CAMIII were treated I.P. for 7 or 21 consecutive days with 1.25 mg/kg, 2.5 mg/kg, 5.0 mg/kg of BK40143 or Dimethyl sulfoxide (DMSO).
pTau Ser396 (Invitrogen, KHB7031) ELISA was performed according to manufacturer's protocol on samples collected from DMSO and 2.5mgkg. S.Omg′kg, and 10 mg/kg treated mice. Samples were total brain lysates extracted in lX STEN buffer. Ordinary one-way ANOVA or Student's ! test was used. * P<0.05

[2] = system: B35 rat neuroblastoma cells; test: Lactate dehydrogenase (LDH) assay, cell toxicity; assay type: cell-based; settings: 5 hours, concentration given in the value
Experimental: (§1) Rat neuroblastoma B35 cells were grown in Dulbecco's Modified Eagle's Medium (DMEM) with 10% Fetal Bovine Serum (FBS) and 1% penicillin/streptomycin and incubated at 37° C. with 5% CO2. For the experiments, cells were transferred to 12-well plates (Cat. #150628, ThermoFisher, Waltham, Mass.) and grown to at least 70% confluence. Transient transfection was performed with 3pg P301L tau (Cat. #30145, Addgene) cDNA or 3pg human a-synuclein cDNA using Fugene HD transfection reagent (Cat. #E2311, Promega, Madison Wis.) for 24 hours. Cells were treated with ImM, I00pM, 10pM, IpM, 0.lIM, 0.01pMl, and 0.001pM dissolved in DMSO or an equivalent SuL of DMSO for 5 hours. Cell culture media was collected and cells were harvested using sodium-tris, EDTA, NP-40 (STEN) buffer and centrifuged at 10,000×g for 20 minutes at 4′C and supernatant was collected. Cell viability was determined via lactate dehydrogenase assay (Cat. #88954, Thermofisher) and MTT assay (Cat. #V13154, Thennofisher). Protein was extracted by removing culture medium and adding 0.2 ml lx STEN buffer (50 mM Tris (pH 7.6), 150 mM NaCl, 2 mM EDTA, 0.2% NP-40, 0.2% BSA, 20 mM PMSF and protease cocktail inhibitor) to cell layer and incubated on ice for 10 minutes. The bottom of the well was scraped and allowed to incubate on ice for an additional 10 minutes. Cell lysates were collected, stored at -80° C., and used for additional analyses.
(§2) Compound 1 (BK5018), Compound 2 (BK5026), Compound 3 (BK5029), Compound 4 (BD5040), Compound 6 (CL2-296). Compound 7 (CL-2-287-1) and Compound 8 (CL-2-287-2) with molecular weights of 284, 339.265, 264, 339, 269 and 247 gimol, respectively, were diluted in Dimethyl Sulfoxide (DMSO) to final concentrations of 100 pM, 10 µM, 1 pM, 0.1 pM, 0.01 pM, and 0.001 pM. Drugs were stored at −80° C.
Cellular cytotoxicity was quantitatively measured by assessment of LDH, a cytosolic enzyme that is released from damaged cells into the cellular media, after exposure to the drug 5 hours after initial dosage. The cell culture media was collected, and an aliquot was coupled with a lactate and NAD+. LDH catalyzes the reaction that converts lactate into pyruvate to produce NADH. NADH, in turn, reduces a tetrazolium salt (NT) into a red fornazan product. The amount of LDH in the media is proportional to the amount of formazan which was measured at 490 nn. The absorbance at 680 nm, to measure the background signal from the instrument, was subtracted from the absorbance at 490 nm to calculate the LDH activity. CelfCulture

[3] = system: B35 rat neuroblastoma cells; test: MTT assay, cell viability; assay type: cell-based; settings: 5 hours, concentration given in the value
Experimental: as §1, §2
To measure cell viability, cells were incubated with 500 pL of Dulbecco's Modified Eagle's Medium (DMEf) containing 50 pL of (3-[4,5-dimethylthiazol-2-yl]-2,5-diphenyl-tetrazolium bromide (ivT)) for 5 hours at 37° C. and 5% CO2. The media was aspirated so that 125 uL of media remained. The formazan salts were dissolved in 250 uL of DMSO. Absorbance was read against a blank containing 125 uL of media and MTT, and 250 uL of DMSO at 570 mn.

[4] = system: p-Tau (Ser396); test: pTau Ser396 ELISA of total brain lysates; assay type: in vivo, mouse (rTG4510, expressing human P301L tau); settings: for reduction in pTau Ser396: vs DMSO
Experimental: (§3) Tauopathy rTG4510 mice (i.e., a mouse model that clinically manifest a tauopathy), expressing human P301L tau driven by a CAMrII promoter, approximately 9-12 months old, were treated intraperitoneally (I.P.) for 21 consecutive days, with 2.5 mg/kg (n=6) BK40197, 5.0 mg/kg (n=6) BK40197, or Dimethyl sulfoxide (DMSO) (n=7).
pTau Ser396 (Invitrogen, Cat. No. KHB7031, Carlsbad, Calif.) were performed according to manufacturer's protocol on samples collected from DMSO, 2.5 mg/kg-, and 5.0 mg/kg-treated animals. Samples for ELISA were total brain lysates extracted in IX STEN buffer.

[5] = system: Tauopathy rTG4510 mice expressing human P301L tau; test: Open-field behavior; assay type: in vivo, mouse
Experimental: as §3
Open-field behavior was assessed in an open-field apparatus where animals were tracked by photocell beams along the arena floor for 60 minutes. Data were collected and analyzed for total distance traveled (cm), total time spent moving (sec), and velocity (distance/time) during the 60-minute trial. A center zone was digitally defined in the software, in the center of the apparatus, and center zone entries during the 60-minute trial were recorded.
For nest shredding, Mann-Whitney analysis was used within groups, between timepoints, and Kruskal-Wallis analysis was used between treatment groups. For open-field studies, : ordinary one-way ANOVA or Student's I test was used.

[6] = system: Tauopathy rTG4510 mice expressing human P301L tau; test: Overnight nest shredding (nesting) behavior; assay type: in vivo, mouse; settings: 2.5 mg/kg I.P., three weeks
Experimental: Tauopathy rTG4510 mice (i.e., a mouse model that clinically manifest a tauopathy), expressing human P301L tau driven by a CAMrII promoter, approximately 9-12 months old, were treated intraperitoneally (I.P.) for 21 consecutive days, […], or Dimethyl sulfoxide (DMSO) (n=7).
Then, blinded, independent observers reviewed images of the overnight shredding and the average quality scores were calculated.
For nest shredding, Mann-Whitney analysis was used within groups, between timepoints, and Kruskal-Wallis analysis was used between treatment groups. For open-field studies, : ordinary one-way ANOVA or Student's I test was used. […]
Blinded independent observers reviewed images of the overnight shredding and the average quality scores were calculated.

[7] = system: p-Tau AT180 (Thr231); test: Western blot of p-Tau AT180 (Thr231); assay type: in vivo, mouse (rTG4510, expressing human P301L tau); settings: 2.5 mg/kg; vs DMSO
Experimental: as §3
(§4) Samples collected from DMSO, 2.5 mg/kg-, and 5.0 mg/kg-treated animals were electrophoresed in a NuPAGE 10% Bis-Tris gel and transferred to a nitrocellulose membrane. Membranes were then probed for total humnan tau (HT-7 antibody and Tau-5 antibody) and phospho-tau (pTau AT180 antibody and pTau AT8 antibody), as well as actin, and treated with an anti-mouse secondary antibody. before exposure using SuperSignal West Dura (Thermo Fisher Scientific, Waltham, Mass.) substrates. Some animials were excluded from analysis due to low transgene expression.

[8] = system: p-Tau AT8 (Ser202, Thr205); test: Western blot of p-Tau AT8 (Ser202, Thr205); assay type: in vivo, mouse (rTG4510, expressing human P301L tau); settings: 2.5 mg/kg; vs DMSO
Experimental: as §3, §4

[9] = target: T1, phosphorylated DDR1 (pDDR1 Tyr513, 296) (Mus musculus, UniProt Q03146); test: Western blot of phosphorylated DDR1; assay type: in vivo, mouse (rTG4510); settings: vs DMSO, normalized to actin
T1 construct: Samples collected from DMSO, 2.5 mg/kg-, and 5.0 mg/kg-treated animals were electrophoresed; from tissue; the ELISA samples were total brain lysates
T1 sequence (Q03146 20-911): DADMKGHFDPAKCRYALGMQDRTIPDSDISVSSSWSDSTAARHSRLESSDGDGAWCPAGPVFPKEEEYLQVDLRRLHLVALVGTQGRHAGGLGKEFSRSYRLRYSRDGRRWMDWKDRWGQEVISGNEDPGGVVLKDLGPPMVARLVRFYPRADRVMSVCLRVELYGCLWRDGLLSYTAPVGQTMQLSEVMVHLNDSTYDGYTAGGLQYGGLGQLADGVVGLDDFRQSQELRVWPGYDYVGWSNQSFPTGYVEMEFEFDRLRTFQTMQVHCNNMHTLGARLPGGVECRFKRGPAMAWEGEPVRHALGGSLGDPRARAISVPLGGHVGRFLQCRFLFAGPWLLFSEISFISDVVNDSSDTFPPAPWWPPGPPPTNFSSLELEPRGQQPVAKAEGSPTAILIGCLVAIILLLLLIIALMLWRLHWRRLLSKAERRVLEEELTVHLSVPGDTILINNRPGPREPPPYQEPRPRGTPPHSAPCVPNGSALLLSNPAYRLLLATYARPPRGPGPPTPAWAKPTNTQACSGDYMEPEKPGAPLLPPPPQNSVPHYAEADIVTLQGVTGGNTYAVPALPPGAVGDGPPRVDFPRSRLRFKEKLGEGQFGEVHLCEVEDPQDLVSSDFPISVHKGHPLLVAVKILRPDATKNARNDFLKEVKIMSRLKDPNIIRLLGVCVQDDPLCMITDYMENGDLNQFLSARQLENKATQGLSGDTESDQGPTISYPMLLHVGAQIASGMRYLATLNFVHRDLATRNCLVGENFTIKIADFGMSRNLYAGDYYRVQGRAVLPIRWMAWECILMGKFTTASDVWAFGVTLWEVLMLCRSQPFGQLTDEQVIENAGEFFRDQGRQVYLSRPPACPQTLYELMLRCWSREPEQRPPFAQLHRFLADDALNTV

Row | SMILES | tau in whole brain lysates [1] | cell toxicity, as measured by LDH assay [2] | cell toxicity, as measured by MTT assay [3] | reduction in pTau Ser396 ([4]; 2.5 mg/kg) | reduction in pTau Ser396 ([4]; 5.0 mg/kg) | p-Tau (Ser396) levels ([4]; dose dependent, 2.5 and 5.0 mg/kg, quantitative ELISA) | overall motor ability (open field) ([5]; 5.0 mg/kg I.P., 60 minutes open field) | open-field distance travelled ([5]; 5.0 mg/kg, sixty minutes, vs DMSO (ANOVA p=0.29)) | open-field time spent moving ([5]; 5.0 mg/kg, sixty minutes, vs DMSO (ANOVA p=0.32)) | hyperactivity/anxiety by observed center zone entries ([5]; 5.0 mg/kg, vs DMSO) | open-field velocity ([5]; 5.0 mg/kg, vs DMSO) | nesting raw scores (nesting qualitative score) ([6]; vs 0 weeks (Mann-Whitney P=0.09) and vs DMSO (Kruskal-Wallis P=0.06)) | nesting mean difference scores ([6]; vs DMSO (Kruskal-Wallis P=0.06)) | reduction in the ratio of p-Tau (Thr231) (AT180) to total Tau [7] | reduction in the ratio of p-Tau AT8 (Ser202, Thr205) to total Tau [8] | reduction in phosphorylated DDR1 (pDDR1 Tyr513, 296) ([9]; 2.5 mg/kg) | reduction in phosphorylated DDR1 (pDDR1 Tyr513, 296) ([9]; 5.0 mg/kg)
1 | O=C(O)c1ccccc1Nc1cccc(Cl)c1 [CL-2-287-2, 2-((3-Chlorophenyl)amino)benzoic acid] | significant reduction | at 100 uM or less did not show increased cell toxicity; also recorded: at 100 pM or less did not show increased cell toxicity | at 10 pM or less did not show increased cell toxicity | – | – | – | – | – | – | – | – | – | – | – | – | – | –
2 | Cc1cccc(-c2cc3nccc(N4CCOCC4)c3s2)c1 [BK40197, 4-(2-(m-Tolyl)thieno[3,2-b]pyridin-7-yn)morpholine] | – | – | – | 11% | 23% | significantly reduces | does not alter overall motor ability | non-significant reduction | non-signicant reduction; also recorded: non-significant reduction | no sign of hyperactivity/anxiety; also recorded: no sign of hyperactivity % anxiety | no difference in velocity | nesting performance improved; also recorded: increase in performance | nesting performance improved; also recorded: increase in performance | 22% | 14% | 22% | 21%

Reference: US20230095341A1, “COMPOSITIONS AND METHODS FOR TREATING NEURODEGENERATIVE, MYODEGENERATIVE, AND LYSOSOMAL STORAGE DISORDERS” (GEORGETOWN UNIVERSITY, priority 2020, published 2023)
